Results taken from patent US8177962B2, “Metal corrosion inhibitor and hydrogen chloride formation inhibitor in a crude oil atmospheric distillation unit” (Kurita Water Industries, Ltd., priority 2002, dated 2012).

Columns and labels:
[1] = Base dissociation constant (Kb) calculated from pH meter measurement; type: physicochemical; settings: for Kb value (25° C.): Table 1; for Kb (25° C.) / Kb (170° C.): Table 6
[2] = thermal decomposition at 760° C., GC/MS, FIG. 3
Description: Choline chloride was subjected to thermal decomposition GC/MS analysis. 5989A manufactured by Hewlett Packard was used as the GC/MS analyzer, and DB624 manufactured by J&W (0.32 mm×30 m, membrane thickness of 1.8 μm) was used as the column. The temperature for thermal decomposition of choline chloride was 760° C.

For `C1COCCN1` [Morpholine], the “Kb value (25° C.)” value [1] was 2.09 × 10^−6.

With `C[N+](C)(C)CCO.[Cl-]` [Choline hydrochloride (choline chloride), choline chloride] the thermal decomposition products [2] was “produces methyl chloride, trimethylamine and N,N-dimethylaminoethanol by thermal decomposition, but does not produce hydrogen chloride”.

With `NC1CCCCC1` [Cyclohexylamine] the “Kb value (25° C.)” value [1] was 3.39 × 10^−4.

For `C[N+](C)(C)CCO.[OH-]` [Choline, (β-hydroxyethyl)trimethylammonium hydroxide], the “Kb value (25° C.)” value [1] was 3.14 × 10^−3, the “Kb (25° C.)” value [1] was 3.14 × 10^−3 and the “Kb (170° C.)” value [1] was 8.40 × 10^−3.

For Dimethylethanolamine, the “Kb (25° C.)” value [1] was 2.21 × 10^−5 and the “Kb (170° C.)” value [1] was 3.38 × 10^−5.

In the case of `NCCO` [Monoethanolamine], the “Kb value (25° C.)” value [1] is reported as 3.15 × 10^−5, the “Kb (25° C.)” value [1] is reported as 2.60 × 10^−5 and the “Kb (170° C.)” value [1] is reported as 8.42 × 10^−6.
